Measured values reported in article PMC4603303, “Activity of Novel Synthetic Peptides against Candida albicans” (Scientific Reports, 2015).
≈ marks a conversion by molar mass, not a printed value.

Tests used:
Candida krusei ATCC 6258 = assay: MIC, broth microdilution (CLSI M27-A2); type: cell-based; conditions: Pichia kudriavzevii, ATCC6258; C. krusei ATCC 6258; RPMI 1640-MOPS, 48 h, 37°C; lowest concentration inhibiting 90% growth; three times in duplicate; read-out: Minimum Inhibitory Concentration (MIC)
Experimental: (§1) C. albicans strains SC5314 and ATCC 90028, C. krusei ATCC 6258 and C. parapsilosis ATCC 22019 were used in the study. The strains were stored at −80°C in nutrient broth supplemented with 2.0% glycerol stock. Prior to experimentation, each strain was streaked for single colonies on Sabouraud Dextrose (SDA) agar plates and incubated overnight at 37°C.
(§2) Antifungal activity of the designed peptides was determined according to a standardized broth microdilution method (Clinical and Laboratory Standards Institute (CLSI) document M27-A2). Briefly, the yeast colonies from 24- hour-old cultures of Candida species were picked and resuspended in 5 mL of sterile 0.145 mol/L saline and adjusted to cell density of 1 × 10^6 to 5 × 10^6 cells/ml. The yeast stock suspension was then diluted to obtain a starting inoculum of 5.0 × 10^2 to 2.5 × 10^3 cells/ml. […] The drugs were dissolved in DMSO and prepared to a stock concentration of 25 mg/L and 50 mg/L, respectively. […] 100 μL of standardized yeast suspension was then added to each well. Plates were incubated for 48 hours at 37°C. The minimum inhibitory concentration (MIC) was defined as the lowest concentration that inhibited 90% growth of Candida species. The MICs were determined three times and each time in duplicate.

Candida albicans SC 5314 = assay: MIC, broth microdilution (CLSI M27-A2); type: cell-based; conditions: Candida albicans, SC5314; C. albicans SC 5314; RPMI 1640-MOPS, 48 h, 37°C; lowest concentration inhibiting 90% growth; three times in duplicate; read-out: Minimum Inhibitory Concentration (MIC)
Experimental: as §1, §2

[1] = test system: Candida parapsilosis ATCC 22019; assay: MIC, broth microdilution (CLSI M27-A2); type: cell-based; conditions: Lodderomyces parapsilosis, ATCC22019; C. parapsilosis ATCC 22019; RPMI 1640-MOPS, 48 h, 37°C; lowest concentration inhibiting 90% growth; three times in duplicate; read-out: Minimum Inhibitory Concentration (MIC)
Experimental: as §1, §2

[2] = test system: Candida albicans ATCC 90028; assay: MIC, broth microdilution (CLSI M27-A2); type: cell-based; conditions: Candida albicans, ATCC90028; C. albicans ATCC 90028; RPMI 1640-MOPS, 48 h, 37°C; lowest concentration inhibiting 90% growth; three times in duplicate; read-out: Minimum Inhibitory Concentration (MIC)
Experimental: as §1, §2

Candida strains = assay: MIC, broth microdilution, range stated over several Candida strains; type: cell-based, Candida spp.
Experimental: as §1, §2

[3] = test system: C. albicans SC5314 biofilms; assay: Biofilm reduction assay (XTT); type: cell-based, Candida albicans; conditions: minimum concentration giving 50% reduction of viability of 24 h-old biofilm, 24 h treatment, 1-4× MIC tested
Experimental: Biofilms of C. albicans were formed on commercially available pre-sterilized, polystyrene, flat bottomed 96 well microtitre plates as described by Jin et al with modification. Firstly, a standardized yeast suspension (10^7 cells/ml) of C. albicans SC5314 was prepared by suspending colonies from 24-hours old culture in RPMI 1640 medium and adjusted to an optical density of 0.38–0.39 at 520 nm. 100 μL of yeast suspension was dispensed into each well of a microtitre plate using a multichannel pipette and the plates were incubated in a shaking incubator at 37°C with 75 rpm for 90 minutes to allow adherence of yeast on the surface of each well. After the adhesion phase, the non-adherent cells were removed and each well was washed twice with 150 μL PBS. 100 μL of RPMI 1640 medium was transferred to each washed well and the plates were incubated at 37°C in a shaking incubator at 75 rpm for 24 hours to allow biofilm formation. Following biofilm phase, the medium was aspirated and each well was washed twice gently with 200 μL PBS to remove non-adherent cells. Residual PBS was removed by inverting the plates over an absorbent paper before addition of peptides. […] Antifungal agent-free wells and biofilm-free wells were included as positive and negative controls. After treatment with peptides, the medium was removed and each well was washed twice with 200 μL PBS. The biofilm formation was quantified by using XTT reduction assay as described below. Each experiment was repeated three times in duplicate.
XTT reduction assay was performed according to the method adapted from Jin et al.[44] Briefly, XTT (Sigma) was dissolved to a concentration of 1 mg/ml using sterile PBS. XTT solution was then filter-sterilized using a 0.22 μm-pore-size filter and kept at −70°C prior to use. 0.4 mM menadione solution was prepared by dissolving menadione (Sigma) with acetone. The menadione solution was filter-sterilized and kept at −70°C before use. Prior to each assay, XTT solution was thawed and mixed with menadione solution at a volume ratio of 20:1. After washing, a total volume of 200 μL of XTT-menadione mixture (158 μL of PBS, 40 μL of XTT and 2 μL of menadione) was added to each prewashed biofilm and control wells. The plates were incubated in the dark for 2 hours at 37°C. 100 μL of the solution was transferred to new wells and the colorimetric change in the solution was measured using a microtiter plate reader at 490 nm. Antibiofilm activity of the peptides and conventional antifungals was expressed as the biofilm-eradicating concentration 2 (BEC-2), which is defined as the minimum concentration of the peptides resulting in 50% reduction of the biofilm viability compared to the growth control.

Het-1A cell line = assay: cells; conditions: Homo sapiens, HET-1A
Experimental: (§3) The human normal vaginal epithelial cell line VK2/E6E7 (ATCC® CRL-2616™) and human normal esophagus epithelial cell line Het-1A (ATCC® CRL-2692™) were used for cytotoxicity testing. VK2/E6E7 cell line was grown in Keratinocyte-Serum Free medium (GIBCO-BRL 17005-042) supplemented with 0.1 ng/ml human recombinant EGF, 0.05 mg/ml bovine pituitary extract, and 44.1 mg/L calcium chloride. […] Cell viability was measured by using CellTiter 96® Aqueous Non-Radioactive Cell Proliferation Assay (Promega, USA) and the colourimetric changes were determined at 490 nm using a microplate reader. […] Results were recorded by averaging three repeated experiments and each experiment was performed in duplicate.

VK2/E6E7 cell line = assay: cells; conditions: Homo sapiens
Experimental: as §3

C. albicans SC5314 = assay: Time killing assay; type: cell-based, Candida albicans; conditions: 2× MIC
Experimental: A fungal suspension was adjusted to a 0.5 McFarland turbidity standard with cell density of 1 × 10^6 to 5 × 10^6 cells/ml. 100 μL of adjusted yeast suspension was exposed to 900 μL of RPMI medium containing peptide, yielding a starting inoculum of approximately 10^5 cells/ml. The solutions were incubated at 37°C with agitation. At the predetermined time interval of 0, 1, 2, 4 and 6 hours, 10 μL or 30 μL of the samples were removed, serially diluted with phosphate-buffered saline (PBS) and plated on SDA plates to allow colony counts after 24 hours of incubation. Controls for yeast growth and antifungal agents were also performed. The lower limit of accurate and reproducible quantitation was 100 CFU/ml. Results were obtained from three independent experiments.

Row | Structure (SMILES) | MIC (Candida krusei ATCC 6258) | MIC (Candida albicans SC 5314) | MIC [1] | MIC [2] | MIC values, range (Candida strains; range against four Candida strains (C. albicans and non-albicans species)) | BEC-2 values [3] | BEC-2 values ([3]; listed as amphotericin B) | IC50 (Het-1A cell line; 24 h) | IC50 (Het-1A cell line; 48 h) | IC50 (Het-1A cell line; 72 h) | IC50 (VK2/E6E7 cell line; 24 h) | IC50 (VK2/E6E7 cell line; 48 h) | IC50 (VK2/E6E7 cell line; 72 h) | % killing (C. albicans SC5314; within 2 hours) | mean log reduction in viable cells (C. albicans SC5314; within 2 hours, RPMI, 37°C, mean ± SD of three experiments) | MIC values, range (Candida strains; range for two C. albicans strains and C. parapsilosis) | BEC-2 values ([3]; listed as fluconazole) | reduction in yeast growth (C. albicans SC5314)
1 | C[C@@H]1[C@H](O)[C@@H](C)/C=C/C=C/C=C/C=C/C=C/C=C/C=C/[C@H](O[C@@H]2O[C@H](C)[C@@H](O)[C@H](N)[C@@H]2O)C[C@@H]2O[C@](O)(C[C@@H](O)C[C@@H](O)[C@H](O)CC[C@@H](O)C[C@@H](O)CC(=O)O[C@H]1C)C[C@H](O)[C@H]2C(=O)O [Amphotericin B, reference compound] | 1 µg/mL (≈ 1.08 µM) | 1 µg/mL (≈ 1.08 µM) | 1 µg/mL (≈ 1.08 µM) | 0.5 µg/mL (≈ 0.541 µM) | 0.5 to 1 mg/L | <1 mg/L | > 1 mg/L | 9.91 ± 3.35 µg/mL (≈ 10.7 µM) | 7.78 ± 1.7 µg/mL (≈ 8.42 µM) | 9.1 ± 0.98 µg/mL (≈ 9.85 µM) | 8.13 ± 4.54 µg/mL (≈ 8.8 µM) | 7.64 ± 2.95 µg/mL (≈ 8.27 µM) | 15.3 ± 3.72 µg/mL (≈ 16.6 µM) | > 99.99% | 5.44 ± 0.07 log CFU/mL | – | – | –
2 | OC(Cn1cncn1)(Cn1cncn1)c1ccc(F)cc1F [Fluconazole, reference compound] | 64 µg/mL (≈ 209 µM) | 1 µg/mL (≈ 3.27 µM) | 1 µg/mL (≈ 3.27 µM) | 2 µg/mL (≈ 6.53 µM) | – | >4 mg/L | – | – | – | – | – | – | – | – | – | 1 to 2 mg/L | > 4 mg/L | > 99.9%
